Measurements reported in the Deep4Chem optical property database.
One block for each compound: values may come before it.

Experiment: solvent given as SMILES
[1] = in c1ccc2c(c1)c1ccccc1n2-c1ccc(-c2ccc(-n3c4ccccc4c4ccccc43)cc2)cc1

emission maximum (in C1CCOC1): 482 nm | emission maximum (in CC#N): 485 nm | emission maximum (in CCO): 489 nm | emission maximum (in CN(C)C=O): 492 nm | emission maximum (in CO): 495 nm | emission maximum (in CS(C)=O): 497 nm
Compound: CSc1sc(C(=O)c2ccccc2)c2nn[nH]c(=O)c12

emission maximum (in ClCCl): 461 nm
Compound: CC(C)(C)c1ccc(-c2cc(-c3ccc(-c4cc(-c5ccc(C(C)(C)C)cc5)c(C(=O)N5CCCCC5)s4)s3)sc2C(=O)N2CCCCC2)cc1

emission maximum (in ClCCl): 553 nm
Compound: CCOC(=O)CCCCCn1c2ccc([N+](=O)[O-])cc2c(=O)c2cc3c(cc21)c(=O)c1cc([N+](=O)[O-])ccc1n3CCCCCC(=O)OCC

emission maximum (in ClCCl): 401 nm
Compound: CCOC(=O)c1c(-c2cc3ccccc3oc2=O)nn(-c2cccc(F)c2)c1C(=O)OCC

emission maximum (in ClCCl): 575 nm
Compound: Cc1cc(-c2ccc(N(c3ccccc3)c3ccccc3)cc2)c2nsnc2c1-c1ccc(C(C)(C)C)cc1

emission maximum (in ClCCl): 536 nm
Compound: CC1=CC(C)=[N+]2C1=C(c1c(-c3ccccn3)nc3ccccn13)c1c(C)cc(C)n1[B-]2(F)F

emission maximum (in C1CCCCC1): 368 nm | emission maximum (in C1CCOC1): 419 nm | emission maximum (in C1COCCO1): 399 nm | emission maximum (in CC1CCCCC1): 391 nm | emission maximum (in CC#N): 421 nm | emission maximum (in CC(C)O): 408 nm | emission maximum (in CCO): 414 nm | emission maximum (in CO): 423 nm | emission maximum (in ClC(Cl)Cl): 404 nm | emission maximum (in O): 445 nm
Compound: CNc1ccc(/C=C/C#N)cc1

Compound: CCCCC1(CCCC)c2cc(C#Cc3ccc4ccc5cccc6ccc3c4c56)ccc2-c2ccc(N(c3ccccc3)c3ccccc3)cc21
emission maximum (in C1CCCCC1): 436 nm | emission maximum (in C1CCOC1): 498 nm | emission maximum (in CC#N): 557 nm | emission maximum (in CCOC(C)=O): 490 nm | emission maximum (in CN(C)C=O): 565 nm | emission maximum (in Cc1ccccc1): 449 nm | emission maximum (in ClC(Cl)Cl): 486 nm | emission maximum (in ClCCl): 516 nm

emission maximum (in CC#N): 487 nm
Compound: O=C1C(=Cc2ccc(Br)cc2)Oc2cccc(O)c21

emission maximum (in O): 413 nm
Compound: COc1cc(/C=C/C(=O)O)ccc1O

emission maximum (in CC(C)O): 557 nm | emission maximum (in CCO): 551 nm | emission maximum (in CO): 545 nm | emission maximum (in O): 534 nm
Compound: O=C([O-])c1ccccc1-c1c2cc(I)c(=O)c(I)c-2oc2c(I)c([O-])c(I)cc12

emission maximum (in O): 535 nm
Compound: NNC(=O)N1C(=O)c2cc(S(=O)(=O)[O-])cc3c(N)c(S(=O)(=O)[O-])cc(c23)C1=O

Compound: CN(C)c1ccc(/C=C/c2cc(/C=C/c3ccc(N(C)C)cc3)nc(/C=C/c3ccccc3)n2)cc1
emission maximum (in C1CCOC1): 526 nm | emission maximum (in CC#N): 587 nm | emission maximum (in CC(C)=O): 563 nm | emission maximum (in CCCCCCC): 453 nm | emission maximum (in CS(C)=O): 601 nm | emission maximum (in Cc1ccccc1): 483 nm | emission maximum (in ClCCl): 537 nm

emission maximum (in CS(C)=O): 349 nm
Compound: Cc1cc2c(cc1C)NC(=O)CC(=O)N2

Compound: O=c1c2cc(Cl)ccc2[nH]c2ccc(COO)cc12
emission maximum (in O): 425 nm

emission maximum (in C1CCOC1): 405 nm
Compound: C1=Cc2ccccc2C(=Cc2ccc(C=C3c4ccccc4C=Cc4ccccc43)cc2)c2ccccc21

Compound: O=c1c2ccccc2sc2ccc(-n3c4ccccc4c4ccccc43)cc12
emission maximum (in C1CCOC1): 452.5 nm | emission maximum (in CCCCCC): 436 nm | emission maximum (in Cc1ccccc1): 447.5 nm | emission maximum (in ClC(Cl)Cl): 486.5 nm | emission maximum (in ClCCl): 483.5 nm

emission maximum (in C1CCCCC1): 596.5 nm | emission maximum (in CCOC(C)=O): 597 nm | emission maximum (in CO): 595 nm
Compound: COC(=O)[C@H](Cc1ccc2oc3c(c2c1)=CC1=C(c2ccc(OC)cc2)c2cc4c5cc(C[C@H](NC(=O)OC(C)(C)C)C(=O)OC)ccc5oc4n2[B-](F)(F)[N+]=31)NC(=O)OC(C)(C)C

emission maximum (in ClC(Cl)Cl): 689 nm
Compound: CCCCCCCCN1C(=O)c2ccc3c4c(-c5ccc6c(c5)c5ccccc5n6-c5ccccc5)cc5c6c(ccc(c7c(-c8ccc9c(c8)c8ccccc8n9-c8ccccc8)cc(c2c37)C1=O)c64)C(=O)N(CCCCCCCC)C5=O

emission maximum (in CO): 510 nm
Compound: c1ccc(N(c2ccccc2)c2ccc(-c3ncc(-c4cnc(-c5ccc(N(c6ccccc6)c6ccccc6)cc5)s4)s3)cc2)cc1

emission maximum (in ClC(Cl)Cl): 491 nm
Compound: CC(C)(C)c1ccc2oc3nc4oc5ccc(N6c7ccccc7Oc7ccccc76)cc5c4cc3c2c1

Compound: O=S(=O)(c1cccc(N2c3ccccc3Oc3ccccc32)c1)c1cccc(N2c3ccccc3Oc3ccccc32)c1
emission maximum (in C1CCOC1): 596 nm | emission maximum (in CCCCC(CC)n1c2ccc(-n3c4ccccc4c4ccccc43)cc2c2cc(-n3c4ccccc4c4ccccc43)ccc21): 542.52 nm | emission maximum (in Cc1ccccc1): 547 nm | emission maximum (in ClC(Cl)Cl): 572 nm | emission maximum (in c1cc(-n2c3ccccc3c3ccccc32)cc(-n2c3ccccc3c3ccccc32)c1): 546.26 nm

emission maximum (in C1CCCCC1): 421 nm | emission maximum (in CC#N): 431 nm | emission maximum (in CO): 426 nm | emission maximum (in ClCCl): 428 nm
Compound: COc1c2ccccc2c(OC)c2c1c1cc(C)ccc1n2C

emission maximum (in CC#N): 491 nm
Compound: F[B-]1(F)OC(c2ccc3c(c2)Cc2ccccc2-3)=CC(c2ccccc2)=[O+]1

emission maximum (in ClC(Cl)Cl): 816 nm
Compound: COc1ccc(C2=c3sc(-c4ccc(OC)cc4)c(-c4ccc(OC)cc4)c3=[N+]3C2=Nc2c(-c4ccc(OC)cc4)c4sc(-c5ccc(OC)cc5)c(-c5ccc(OC)cc5)c4n2[B-]3(F)F)cc1

emission maximum (in CC#N): 500 nm | emission maximum (in ClCCl): 490 nm
Compound: COc1cccc(/C=C/C(=O)c2c(O)cc(C)oc2=O)c1

Compound: CC1(C)c2ccccc2N(c2ccc(-c3nnc(-c4cc(-c5ccccc5)c(-c5ccccc5)c(-c5ccccc5)c4-c4ccccc4)o3)cc2)c2ccccc21
emission maximum (in Cc1ccccc1): 445 nm | emission maximum (in c1ccc(-n2c(-c3c(-n4c5ccccc5c5ccccc54)cccc3-n3c4ccccc4c4ccccc43)nc3ccccc32)cc1): 453 nm

Compound: Fc1c(F)c(-n2c3ccccc3c3ccccc32)c(F)c(F)c1-c1nnc(-c2ccccc2)o1
emission maximum (in Cc1ccccc1): 444 nm

emission maximum (in CC#N): 418 nm
Compound: N#Cc1nn(-c2c(Cl)cccc2Cl)nc1N1CCCC1

Compound: O=C1c2ccc(-c3ccc(N(c4ccc(-c5ccccc5)cc4)c4ccc(-c5ccccc5)cc4)cc3)cc2C(=O)c2ccc(-c3ccc(N(c4ccc(-c5ccccc5)cc4)c4ccc(-c5ccccc5)cc4)cc3)cc21
emission maximum (in Cc1ccccc1): 608 nm | emission maximum [1]: 601 nm

emission maximum (in CC#N): 605 nm | emission maximum (in CCCCCC): 599 nm | emission maximum (in CCOC(C)=O): 604 nm | emission maximum (in CO): 599 nm | emission maximum (in ClCCl): 603 nm
Compound: N#CSC1=CC2=C(c3ccccc3)c3ccc(N4CCOCC4)n3[B-](F)(F)[N+]2=C1N1CCOCC1

Compound: C=C(C)C(CN1C(=O)c2cccc3c2c(cc2oc(C)nc23)C1=O)OO (stereo unspecified)
emission maximum (in CCO): 416 nm

Compound: C(=C\c1ccc(N(c2ccc(/C=C/c3ccc(N(c4ccccc4)c4ccccc4)cc3)cc2)c2ccc(-c3nc4ccccc4nc3-c3ccc(N(c4ccc(/C=C/c5ccc(N(c6ccccc6)c6ccccc6)cc5)cc4)c4ccc(/C=C/c5ccc(N(c6ccccc6)c6ccccc6)cc5)cc4)cc3)cc2)cc1)/c1ccc(N(c2ccccc2)c2ccccc2)cc1
emission maximum (in C1CCOC1): 532 nm | emission maximum (in Cc1ccccc1): 521 nm

emission maximum (in ClCCl): 461 nm
Compound: C1=Cc2ccc(N(c3ccccc3)c3ccccc3)cc2C2(c3cc(N(c4ccccc4)c4ccccc4)ccc31)c1ccccc1-c1ccccc12

emission maximum (in ClCCl): 456 nm
Compound: c1ccc(-c2ccc(-c3cn4ccc[n+]4[n-]3)cc2)cc1

emission maximum (in ClCCl): 441 nm
Compound: C(#Cc1nc(C#Cc2cccs2)c(C#Cc2cccs2)c(C#Cc2cccs2)c1C#Cc1cccs1)c1cccs1

Compound: O=S(=O)(c1ccc(-c2ccc(-c3nc4c5ccccc5c5ccccc5c4n3-c3ccccc3)cc2)cc1)c1ccc(-c2ccc(-c3nc4c5ccccc5c5ccccc5c4n3-c3ccccc3)cc2)cc1
emission maximum (in C1CCOC1): 451 nm | emission maximum (in CC#N): 479 nm | emission maximum (in CC(C)=O): 468 nm | emission maximum (in CC(C)OC(C)C): 437 nm | emission maximum (in CCCCCC): 404 nm | emission maximum (in CCCCOCCCC): 420 nm | emission maximum (in CCN(CC)CC): 413 nm | emission maximum (in CCOC(C)=O): 448 nm | emission maximum (in CCOCC): 438 nm | emission maximum (in CN(C)C=O): 478 nm | emission maximum (in ClC(Cl)Cl): 450 nm | emission maximum (in ClCCl): 461 nm | emission maximum [1]: 443 nm

emission maximum (in C1CCCCC1): 603 nm | emission maximum (in CCOC(C)=O): 602.5 nm | emission maximum (in CO): 603 nm
Compound: CCCCCCOc1ccc2oc3c(c2c1)=CC1=C(c2ccccc2C)c2cc4c5cc(OCCCCCC)ccc5oc4n2[B-](F)(F)[N+]=31

Compound: N#CC(C#N)=Cc1ccc2nc(C#Cc3ccc(N(c4ccc(C#Cc5nc6ccc(C=C(C#N)C#N)cc6s5)cc4)c4ccc(C#Cc5nc6ccc(C=C(C#N)C#N)cc6s5)cc4)cc3)sc2c1
emission maximum (in Cc1ccccc1): 512 nm

emission maximum (in O): 660 nm
Compound: Cc1ccc(C2=C3C=CC(=[N+](C)C)C=C3[Si](C)(C)c3cc(N(C)C)ccc32)c(C)c1

emission maximum (in CS(C)=O): 692 nm
Compound: COc1ccc(C2=[N+]3C(=Nc4c(C)cc(-c5ccc(OC)cc5)n4[B-]3(F)F)C(C)=C2)cc1

emission maximum (in ClCCl): 496 nm
Compound: CCN(CC)c1ccc2cc(-c3nc4cc(C(=O)Nc5ccc(C)cc5[N+](=O)[O-])ccc4o3)c(=O)oc2c1

emission maximum (in CN(C)C=O): 408 nm
Compound: O=c1[nH]nc(-c2ccc(/C=C/c3ccc(-c4n[nH]c(=O)o4)cc3)cc2)o1

Compound: Cc1ccc2c(c1)C1(c3ccccc3-c3ccccc31)c1cc(C)ccc1N2c1ccc(-c2ncccn2)cc1
emission maximum (in Cc1ccccc1): 461 nm | emission maximum (in O=P(c1ccccc1)(c1ccccc1)c1ccc2oc3ccc(P(=O)(c4ccccc4)c4ccccc4)cc3c2c1): 466 nm

emission maximum (in ClCCl): 544 nm
Compound: C[C@H](Nc1c2ccc(=[N+]3CCCCC3)cc-2oc2cc(N3CCCCC3)ccc12)C(=O)OC(C)(C)C

emission maximum (in C1CCOC1): 419 nm | emission maximum (in CO): 442 nm
Compound: CCOC(=O)C1=CN(c2ccccc2)C=CC1c1ccccc1 (stereo unspecified)

Compound: CC(C)(C)c1ccc(N(c2ccc(S(=O)(=O)c3ccc(S(=O)(=O)c4ccc(N(c5ccc(C(C)(C)C)cc5)c5ccccc5C(C)(C)C)cc4)cc3)cc2)c2ccccc2C(C)(C)C)cc1
emission maximum (in Cc1ccccc1): 454 nm | emission maximum (in c1cc(-n2c3ccccc3c3ccccc32)nc(-n2c3ccccc3c3ccccc32)c1): 463.53 nm

emission maximum (in CS(C)=O): 520 nm
Compound: N#Cc1c(/C=C/c2ccc(N(c3ccccc3)c3ccccc3)cc2)cc(-c2ccccc2)cc1N1CCCCC1

Compound: CN(C)c1ccc(C2=Nc3sc4ccccc4[n+]3[B-](F)(F)O2)cc1
emission maximum (in C1CCOC1): 469 nm | emission maximum (in CC#N): 486 nm | emission maximum (in CC(C)=O): 482 nm | emission maximum (in Cc1ccccc1): 450 nm | emission maximum (in ClCCl): 467 nm
